Experimental data: patent US9867857B2, “Acetobacter and gluconacetobacter strains and their metabolites for use in inhibiting xanthine oxidase” (Food Industry Research And Development Institute, priority 2014, dated 2018)

System: ICR mice
Test: Experimental uricemia: potassium oxonate-induced high serum uric acid
Format: in vivo
Details: potassium oxonate 400 mg/kg + allopurinol 10 mg/kg fed, 1 h after dosing
Protocol: Acetobacter pasteurianus strain AHU01 was inoculated onto an M1A plate and cultured for 2 days at 30° C. The plate was washed with 7 ml of sterile water as seed broth. 0.5 ml of the seed broth was inoculated into 50 ml of a custom media (1% soy peptone, 0.2% yeast extract, 3% glucose, 0.2% malt extract, and 3% fructose) in a 250 ml triangular flask and incubated with shaking at 150 rpm for 7 days at 30° C. The medium was then collected and centrifuged at 3000 rpm for 15 minutes. Following centrifugation, the supernatant was collected, lyophilized, and freeze-dried to form a solid fermentation product for use in animal experiments.
ICR mice were used as experimental animals. Potassium oxonate, a uricase inhibitor, was used to induce a high level of uric acid in the serum of the mice. Mice were fasted for one hour and then fed saline or potassium oxonate (400 mg/kg) via a feeding tube. After one hour, potassium oxonate-treated mice were fed saline, allopurinol (10 mg/kg), or the Acetobacter pasteurianus strain AHU01 fermentation product (150 mg or 200 mg resuspended in saline per mouse) prepared as described above. Ten animals were used for each experimental group and for the control group. The animals were sacrificed after one hour and the level of uric acid in their serum was analyzed.

Compound: Oc1ncnc2[nH]ncc12 [allopurinol]
- serum uric acid concentration: 2.82 ± 0.28 mg/dL
